ChEMBL document CHEMBL1201862, “PubChem BioAssay data set” (2004)
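Protocol summary: plate cells (96-well), add compound at 5 concentrations, incubate 48 h, interpolate endpoints linearly. GI50 = concentration required for 50% inhibition of growth.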 Calls of active or inactive are those of the source. Cut-off read from the data, not from the text of the source: active = GI50 up to about 1.1 µM and inactive = higher.

Legend:
Assay in all cases: growth of human tumour cells (NCI), 48 h
A549 = system: A549
CAKI-1 = system: CAKI-1
CCRF-CEM = system: CCRF-CEM
DMS-114 = system: DMS-114
DMS-273 = system: DMS-273
HL-60 = system: HL-60
HOP-18 = system: HOP-18
K562 = system: K562
KM-20L2 = system: KM-20L2
M19-MEL = system: M19-MEL
MCF7 = system: MCF7
MOLT-4 = system: MOLT-4
NCI-H226 = system: NCI-H226
NCI-H23 = system: NCI-H23
NCI/ADR-RES = system: NCI/ADR-RES
SF-295 = system: SF-295
SK-OV-3 = system: SK-OV-3
SNB-75 = system: SNB-75
786-0 = system: 786-0
A498 = system: A498
ACHN = system: ACHN
DLD-1 = system: DLD-1
HOP-62 = system: HOP-62
HOP-92 = system: HOP-92
LXFL 529 = system: LXFL 529
M14 = system: M14
Malme-3M = system: Malme-3M
NCI-H460 = system: NCI-H460
OVCAR-4 = system: OVCAR-4
RPMI-8226 = system: RPMI-8226
SF-539 = system: SF-539
SK-MEL-28 = system: SK-MEL-28
SK-MEL-2 = system: SK-MEL-2
SN12C = system: SN12C
SNB-78 = system: SNB-78
SR = system: SR
U-251 = system: U-251
UACC-62 = system: UACC-62
UO-31 = system: UO-31
COLO 205 = system: COLO 205
EKVX = system: EKVX
HCT-116 = system: HCT-116
HCT-15 = system: HCT-15
HT-29 = system: HT-29
IGROV-1 = system: IGROV-1
KM12 = system: KM12
NCI-H522 = system: NCI-H522
OVCAR-3 = system: OVCAR-3
OVCAR-8 = system: OVCAR-8
RXF 393 = system: RXF 393
SF-268 = system: SF-268
SK-MEL-5 = system: SK-MEL-5
SNB-19 = system: SNB-19
SW-620 = system: SW-620
TK-10 = system: TK-10
UACC-257 = system: UACC-257

## O=C(O)/C=C/c1c[nH]c(=O)[nH]c1=O
A549
  GI50: > 500 µM (inactive)
CAKI-1
  GI50: > 500 µM (inactive)
CCRF-CEM
  GI50: > 316 µM (inactive)
DMS-114
  GI50: > 500 µM (inactive)
DMS-273
  GI50: > 500 µM (inactive)
HL-60
  GI50: > 446 µM (inactive)
HOP-18
  GI50: > 500 µM (inactive)
K562
  GI50: > 500 µM (inactive)
KM-20L2
  GI50: > 500 µM (inactive)
M19-MEL
  GI50: > 500 µM (inactive)
MCF7
  GI50: > 500 µM (inactive)
MOLT-4
  GI50: > 281 µM (inactive)
NCI-H226
  GI50: 489 µM (inactive)
NCI-H23
  GI50: > 500 µM (inactive)
NCI/ADR-RES
  GI50: > 344 µM (inactive)
SF-295
  GI50: > 232 µM (inactive)
SK-OV-3
  GI50: > 500 µM (inactive)
SNB-75
  GI50: > 500 µM (inactive)

## CCCSc1nc(COC(=O)NC)c(COC(=O)NC)n1C
786-0
  GI50: 69.5 µM (inactive)
A498
  GI50: 46 µM (inactive)
ACHN
  GI50: 23.9 µM (inactive)
CAKI-1
  GI50: 32.8 µM (inactive)
CCRF-CEM
  GI50: 29.6 µM (inactive)
DLD-1
  GI50: > 100 µM (inactive)
DMS-114
  GI50: 58.2 µM (inactive)
DMS-273
  GI50: 48.9 µM (inactive)
HL-60
  GI50: 29.4 µM (inactive)
HOP-62
  GI50: 80.7 µM (inactive)
HOP-92
  GI50: 56 µM (inactive)
K562
  GI50: 46.2 µM (inactive)
LXFL 529
  GI50: 36.3 µM (inactive)
M14
  GI50: > 100 µM (inactive)
M19-MEL
  GI50: 88.1 µM (inactive)
MOLT-4
  GI50: 21.2 µM (inactive)
Malme-3M
  GI50: 86.5 µM (inactive)
NCI-H23
  GI50: 54.2 µM (inactive)
NCI-H460
  GI50: 39.7 µM (inactive)
OVCAR-4
  GI50: 93.3 µM (inactive)
RPMI-8226
  GI50: 25 µM (inactive)
SF-539
  GI50: 64.1 µM (inactive)
SK-MEL-28
  GI50: > 100 µM (inactive)
SK-MEL-2
  GI50: 53.2 µM (inactive)
SN12C
  GI50: 88.7 µM (inactive)
SNB-75
  GI50: 49 µM (inactive)
SNB-78
  GI50: 63.2 µM (inactive)
SR
  GI50: 29.4 µM (inactive)
U-251
  GI50: 98.2 µM (inactive)
UACC-62
  GI50: 80.2 µM (inactive)
UO-31
  GI50: 57.1 µM (inactive)

## [N-]=[N+]=Nc1ccccc1-[n+]1noc([O-])c1Br
786-0
  GI50: > 100 µM (inactive)
A549
  GI50: > 100 µM (inactive)
ACHN
  GI50: > 100 µM (inactive)
CAKI-1
  GI50: > 100 µM (inactive)
CCRF-CEM
  GI50: > 100 µM (inactive)
COLO 205
  GI50: > 100 µM (inactive)
DLD-1
  GI50: > 100 µM (inactive)
DMS-114
  GI50: > 100 µM (inactive)
EKVX
  GI50: > 100 µM (inactive)
HCT-116
  GI50: > 100 µM (inactive)
HCT-15
  GI50: > 100 µM
HL-60
  GI50: > 100 µM (inactive)
HOP-18
  GI50: > 100 µM (inactive)
HOP-62
  GI50: > 100 µM (inactive)
HOP-92
  GI50: > 100 µM (inactive)
HT-29
  GI50: > 100 µM (inactive)
IGROV-1
  GI50: > 100 µM (inactive)
K562
  GI50: > 100 µM (inactive)
KM-20L2
  GI50: > 100 µM (inactive)
KM12
  GI50: > 100 µM (inactive)
LXFL 529
  GI50: > 100 µM (inactive)
M14
  GI50: > 100 µM (inactive)
M19-MEL
  GI50: > 100 µM (inactive)
MOLT-4
  GI50: > 100 µM (inactive)
Malme-3M
  GI50: > 100 µM (inactive)
NCI-H226
  GI50: > 100 µM (inactive)
NCI-H23
  GI50: > 100 µM (inactive)
NCI-H460
  GI50: > 100 µM (inactive)
NCI-H522
  GI50: > 100 µM (inactive)
OVCAR-3
  GI50: > 100 µM (inactive)
OVCAR-4
  GI50: > 100 µM (inactive)
OVCAR-8
  GI50: > 100 µM (inactive)
RPMI-8226
  GI50: > 100 µM (inactive)
RXF 393
  GI50: > 100 µM (inactive)
SF-268
  GI50: > 100 µM (inactive)
SF-295
  GI50: > 100 µM (inactive)
SF-539
  GI50: > 100 µM (inactive)
SK-MEL-28
  GI50: > 100 µM (inactive)
SK-MEL-2
  GI50: > 100 µM (inactive)
SK-MEL-5
  GI50: > 100 µM (inactive)
SK-OV-3
  GI50: > 100 µM (inactive)
SN12C
  GI50: > 100 µM (inactive)
SNB-19
  GI50: > 100 µM (inactive)
SNB-75
  GI50: > 100 µM (inactive)
SR
  GI50: > 100 µM (inactive)
SW-620
  GI50: > 100 µM (inactive)
TK-10
  GI50: > 100 µM (inactive)
U-251
  GI50: > 100 µM (inactive)
UACC-257
  GI50: > 100 µM (inactive)
UACC-62
  GI50: > 100 µM (inactive)
UO-31
  GI50: > 100 µM (inactive)
